The record followed here is patent EP0193257A1, “Control of micro-organisms in water-containing compositions” (NIPA LABORATORIES, LTD., priority 1985, dated 1986).

In series [1] the test system is mixed culture of 6 species of Gram negative bacteria. The series can be described thus: Survivor plate count in commercial shampoo after challenge. The series is classed as cell-based. Here is the method: A sample of a commercial shampoo preparation (without preservative) was divided into three portions and, to a first portion of this shampoo, the following preservative system was added: • 0.3% (w/w) of a 30% w/w solution of DCHB in propylene glycol (resulting in a concentration of 0.09% of active DCHB).
To a further portion of the unpreserved shampoo, 0.3% (w/w) propylene glycol alone was added to ensure any observed bactericidal effect was due to DCHB.
20g portions of the unpreserved shampoo and the shampoo with the above additions were inoculated with 0.4 ml of a mixed culture of 6 species of Gram negative bacteria (including an isolate from a contaminated shampoo) to give an initial inoculum level of 2.14 x 10^7 colony forming units per g.
The inoculated samples were mixed by Vortex mixer and stored at room temperature. At regular timed intervals after challenge the total number of survivors in each sample portion were determined by serial dilution and plate counting (Nutrient Agar, 32°C) with the following results: […]

Series [2] deals with mixed culture of 7 strains of Gram negative bacteria. The series can be described thus: Survivor plate count in shampoo formulation after challenge. Format: cell-based. The conditions noted are these: shampoo with 0.20% of 30% DCHB in propylene glycol (0.06% active DCHB). Here is the method: A shampoo formulation was prepared to the following formula: […]
Various additions were made to portions of this shampoo in sterile bottles under aseptic conditions, as follows: • 1. 0.20% of 30% DCHB in propylene glycol (0.06% active DCHB) • 2. 0.20% of 30% DCHB in propylene glycol + 0.05% citric acid • 3. 0.05% citric acid (control 1) • 4. No addition (control 2)
Each of these systems was inoculated with a mixed culture of 7 strains of Gram negative bacteria, at an initial inocullum level of 9.0x10^7 colony forming units per g. At 30 mins, 1 hour, 2 hours, 6 hours, 24 hours and 7 days after inoculation the total number of survivors in each sample portion were determined by serial dilution and plate counting; with the following results: […]

The nature of series [3]: Acute oral toxicity. The settings on record: rat, in vivo, rats. An excerpt:
It is important that preservatives added to toiletry, household and pharmaceutical products have a low order of toxicity.

The nature of series [4]: Storage stability in shampoos, aqueous solutions and creams. Format: physicochemical. The settings on record: 0.3% (w/w) in shampoos, 25°C, in the light and in dark, seven months. Here is the method: Samples of shampoos, aqueous solutions and creams with and without addition of DCHB at 0.3% (w/w) have been stored at 25°C, in the light and in dark, for seven months and have been assessed for visual colour change and for DCHB content, by UV analysis, at regular intervals.

Series [5] is described as follows: Antimicrobial activity in the presence of proteins. The conditions noted are these: proteins such as serum and soluble collagen.
The mark [6] stands for this setting: commercial shampoo + 0.3% of 30% DCHB in propylene glycol (0.09% active DCHB).

Turning to `O=Cc1cc(Cl)c(O)c(Cl)c1` [DCHB, 3,5-Dichloro-4-hydroxybenzaldehyde], in series [1] (setting [6]), the “Gram negative bacteria - Mixed Culture Colony forming units/g after: 1 day” value is reported as under 10 Colony forming units/g, the “Gram negative bacteria - Mixed Culture Colony forming units/g after: 7 days” value is under 10 Colony forming units/g, the “Gram negative bacteria - Mixed Culture Colony forming units/g after: 14 days” value was under 10 Colony forming units/g and the “Gram negative bacteria - Mixed Culture Colony forming units/g after: 28 days” value is given as under 10 Colony forming units/g. Moreover, in series [1] (commercial shampoo + 0.3% of 30% DCHB in propylene glycol (0.09% active DCHB), initial inoculum 2.14 x 10^7 colony forming units per g), the “Gram negative bacteria - Mixed Culture Colony forming units/g after: 3 hours” value is on record as 9.0x10^6 Colony forming units/g. For the same compound, the “bactericidal effect against normally resistant gram negative bacteria” value in series [1] (shampoo containing 0.3 % of 30 % DCHB in propylene glycol) is “rapid and satisfactory bactericidal effect”. Besides, in series [2], the “Mixed culture - colony forming units/g after: 1 hour” value is on record as 3.0x10^6 colony forming units/g, the “Mixed culture - colony forming units/g after: 2 hours” value is 6.6x10^5 colony forming units/g, the “Mixed culture - colony forming units/g after: 6 hours” value was 7.0x10^5 colony forming units/g and the “Mixed culture - colony forming units/g after: 24 hours” value was 8.4x10^4 colony forming units/g. Moreover, the “Mixed culture - colony forming units/g after: 7 days” value in series [2] amounted to 10 colony forming units/g. For the same compound, the “Mixed culture - colony forming units/g after: 30 mins” value in series [2] (initial inoculum 9.0x10^7 colony forming units per g) was 3.9x10^6 colony forming units/g. Moreover, the LD50 (as a rule, the dose expected to kill half of the subjects tested) in series [3] is over 5000 mg/kg. Besides, in series [4], the “DCHB content, by UV analysis (UV absorption readings)” value is recorded as “no significant change” and the visual colour change result was “no colour changes”. For the same compound, the “antimicrobial activity in the presence of proteins” value in series [5] is listed as “retaining antimicrobial activity”.
